System: passive cutaneous anaphylaxis (PCA)
Assay: Inhibitory effect on passive cutaneous anaphylaxis (PCA) in rats
Format: in vivo, rat (male Wistar)
Conditions: Rattus norvegicus; 20 mg/kg, oral, 1 hour before antigen challenge; read-out: Inhibition (PCA in rats)
Procedure: (1) Inhibitory effect on passive cutaneous anaphylaxis (PCA) in rats:
This test was carried out by the method of Perper et al. [cf.
Male Wistar rats (130-180 g) were injected with 0.1 ml of a dilute solution of mouse antiserum to egg albumin in two sites of the shaved ventral skin. Forty-eight hours later each rat was challenged by an intravenous injection of 2 mg of the antigen together with 1 ml of a 0.5% Evan's blue saline solution. The rats were sacrificed 30 minutes after the challenge. The area of the blueing lesions was measured on the undersurface of the skin. The average value of the two lesions of each rat was regarded as the response of the rat. Test compounds in a dose of 20 mg/kg, dissolved or suspended in a 0.5% aqueous tragacanth solution, were administered orally 1 hour before the antigen challenge. The inhibitory rate was determined by comparing the responses of the rats given each test compound with those of the rats given only a 0.5% aqueous tragacanth solution. Each group of 3 rats was used for each test compound. The mouse antiserum to egg albumin was produced by the method of Levine and Vaz [cf. Int. Arch. Allergy Appl.

Compound | inhibition in vivo at 20 mg/kg [%]
O=C(C=Cc1cncc(F)c1)NCCCCN1CCN(C(c2ccccc2)c2ccccc2)CC1 [Example 3, N-[3-(5-fluoro-3-pyridyl)acryloyl]-4-(4-diphenylmethyl-1-piperazinyl)butylamine] | 65
Cc1ccc(C(c2ccccc2)N2CCN(CCCCNC(=O)C=Cc3ccc(C)nc3)CC2)cc1 (centres unmarked) [Example 48] | 73.9
O=C(C=Cc1cccnc1)NCCCCN1CCN(C(c2ccc(F)cc2)c2ccc(F)cc2)CC1 [Example 62] | 56.1
C/C(=C\c1ccc(C)nc1)C(=O)NCCCCN1CCN(C(c2ccccc2)c2ccccc2)CC1 [Example 77] | 58.2
CC/C(=C\c1cccnc1)C(=O)NCCCCN1CCN(C(c2ccccc2)c2ccccc2)CC1 [Example 5, N-[3-(3-pyridyl)-2-ethylacryloyl]-4-(4-diphenylmethyl-1-piperazinyl)butylamine sesquifumarate] | 67.8
O=C(C=Cc1cccnc1)NCCCCN1CCCN(C(c2ccccc2)c2ccccc2)CC1 [Example 6, N-[3-(3-pyridyl)acryloyl]-4-(4-diphenylmethyl-1-homopiperazinyl)butylamine1/4 hydrate] | 70
O=C(C=Cc1ccc(Oc2cccc(F)c2)nc1)NCCCCN1CCN(C(c2ccccc2)c2ccccc2)CC1 [Example 29] | 60.7
O=C(C=Cc1cncc(Cl)c1)NCCCCN1CCN(C(c2ccccc2)c2ccccc2)CC1 [Example 47] | 66.4
O=C(C=Cc1cccnc1)NCCCCN1CCN(C(c2ccccc2)c2ccc(Br)cc2)CC1 (centres unmarked) [Example 64] | 55.8
O=C(C=CC=Cc1cccnc1)NCCCCN1CCN(C(c2ccccc2)c2ccccc2)CC1 [Example 85] | 66.4
O=C(NCCCCN1CCN(C(c2ccccc2)c2ccccc2)CC1)/C(=C/c1cccnc1)c1ccccc1 [Example 79] | 58
Cc1ccc(C(c2ccccc2)N2CCN(CCCCNC(=O)C=Cc3cccnc3)CC2)cc1 (centres unmarked) [Example 58] | 82.9
Cc1ncccc1C=CC(=O)NCCCCN1CCN(C(c2ccccc2)c2ccccc2)CC1 [Example 53] | 68.8
Cc1ccc(C=CC=CC(=O)NCCCCN2CCN(C(c3ccccc3)c3ccccc3)CC2)cn1 [Example 87] | 68.8

— patent US4778796A, “ω-(3-pyridyl)alkenamide derivatives and anti-allergenic pharmaceutical compositions containing same” (Dainippon Pharmaceutical Co., Ltd., priority 1985, dated 1988)
